A short description of data set [1]: Test of stability in plasma, rat. It counts as in vitro ADME. Particulars: read-out: Residual rate% at 37°C for 6 h. The protocol: (§1) 5. Test of stability in plasma
(§2) In this experiment, plasmas of five species, including human, monkey, dog, rat, and mouse, were used to evaluate the stability in plasma of Compound 7.
(§3) A plasma sample was prepared at a concentration level of 1000 ng/mL, and dispensed into EP tubes at time points 0 h and 6 h. Acetonitrile solution containing an internal standard was added directly to the 0 h sample; and the 6 h sample was placed at 37°C for the corresponding time, and then added with an acetonitrile solution containing internal standard. The concentration of the test compound in the sample was measured by the LC-MS/MS method, and the residual rate was calculated from the ratio of the peak areas of the test compound to the internal standard in the time point sample and the 0 h sample.
(§4) Experimental results: At the concentration level of 1000 ng/mL under the test conditions, the residual rates of the test Compounds were shown in Table 6 below. Table 6. Residual rate% at 37°C for 6 h

Data set [2] is described as follows: Test of stability in plasma, dog. To be noted: read-out: Residual rate% at 37°C for 6 h. The data set is classed as in vitro ADME. The protocol:
as §1, §2, §3, §4

Data set [3] in a line: Test of stability in plasma, monkey. The data set is classed as in vitro ADME. To be noted: read-out: Residual rate% at 37°C for 6 h. As to the method: as §1, §2, §3, §4
Data set [4] in a line: Test of stability in plasma, mouse. The data set is classed as in vitro ADME. Particulars: read-out: Residual rate% at 37°C for 6 h. As to the method: as §1, §2, §3, §4
Data set [5] can be described thus: Test of stability in gastrointestinal fluid: simulated intestinal fluid (trypsin, pH 6.8). Particulars: 0.5 mg/ml, 37°C. It counts as in vitro ADME. The protocol: (§5) 6. Test of stability in gastrointestinal fluid
1.3. Preparation of 0.1 mol/L NaOH: 0.4 g of NaOH was dissolved in 100 ml of water.
1.4. Preparation of simulated intestinal fluid: 0.68 g of potassium dihydrogen phosphate was dissolved in 50 ml of water, and the pH value was adjusted to 6.8 with 0.1 mol/L sodium hydroxide solution. 1 g of trypsin was dissolved in an appropriate amount of water. After the two solutions were mixed, the mixture was diluted with water to 1000 ml.
(§6) About 12.5 mg of the sample was added to a 25 ml volumetric flask and dissolved in the simulated gastric fluid (or simulated intestinal fluid), and the mixture was diluted to the mark.
(§7) Instrument model: Agilent 1260 Infinity; mobile phase A: 10 mmol/L K2HPO4, and mobile phase B: acetonitrile; column: Phenomenex Gemini^@ 3 um C18 110Å 150 * 4.6 mm; wavelength: 224 nm; column temperature: 30°C; sample tray temperature: 37°C; injection time: 35 min; injection volume: 10 ul; injection mode: gradient injection; and gradient method. Table 7. Gradient mobile phase
(§8) Sampling and testing: Firstly, the blank solution (simulated gastric fluid or simulated intestinal fluid) was tested. Then, the prepared sample (newly prepared for use) was placed in the injection tray for immediate injection. Then, a needle of sample was injected at 4.5 h, 9.5 h, and 18 h, respectively.
(§9) Table 8. Stability in gastrointestinal fluid

The target of data set [6] is T1, IL-23α/IL-12β and IL-23R (Homo sapiens, UniProt Q5VWK5).
T1 construct: purchased ACRO ILR-H82F3 (IL-23R); ILB-H52W5 (IL-23α/IL-12β)
T1 sequence (Q5VWK5 24-353 limits assumed): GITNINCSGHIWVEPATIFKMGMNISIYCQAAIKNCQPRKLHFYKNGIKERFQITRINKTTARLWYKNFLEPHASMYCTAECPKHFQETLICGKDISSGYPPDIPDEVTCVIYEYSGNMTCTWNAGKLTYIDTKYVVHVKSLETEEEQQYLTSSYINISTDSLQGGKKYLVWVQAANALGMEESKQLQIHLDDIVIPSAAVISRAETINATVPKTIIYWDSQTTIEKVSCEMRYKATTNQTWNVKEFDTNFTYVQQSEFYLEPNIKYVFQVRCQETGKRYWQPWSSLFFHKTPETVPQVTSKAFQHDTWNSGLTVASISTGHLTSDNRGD
Briefly: IL-23α/IL-12β and IL-23R binding assay (TR-FRET/HTRF). To be noted: inhibition of the binding of IL-23α/IL-12β to IL-23R, TR-FRET; both proteins 0.3 nM. Summed up: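 TR-FRET with IL-23α/IL-12β and IL-23R each at 0.3 nM in PPI buffer; compound preincubated with IL-23α/IL-12β 60 min at 25°C, then IL-23R and Tb/d2 detection reagents added for 60 min. HTRF 665/620 ratio; IC50 by nonlinear regression.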
For orientation: Time-resolved FRET reads energy transfer from a long-lived donor to a nearby acceptor.

The nature of data set [7]: Test of stability in gastrointestinal fluid: simulated gastric fluid (pepsin). The data set is classed as in vitro ADME. Particulars: 0.5 mg/ml, 37°C. As to the method:
as §5
1.1. Preparation of dilute hydrochloric acid: 23.4 ml of hydrochloric acid was diluted with water to 1000 ml.
1.2. Preparation of simulated gastric fluid: 1.64 ml of dilute hydrochloric acid and 1 g of pepsin were added to about 80 ml of water. After being shaken well, the mixture was diluted with water to 100 ml.
as §6, §7, §8, §9

Positions of bridges follow the written chain, without caps; N, C: chain ends. Non-standard residues stand in square brackets, D forms with d. Residues, ends and D or L forms follow the SMILES beside them. Phe(4-OC2H4NH2,2,3-(CH2)3) = NCCOc1ccc(C[C@H](N)C(=O)O)c2c1CCC2; Trp(7-Me) = Cc1cccc2c(C[C@H](N)C(=O)O)c[nH]c12; 2Nal = N[C@@H](Cc1ccc2ccccc2c1)C(=O)O; 3Pal = N[C@@H](Cc1cccnc1)C(=O)O; Pen = CC(C)(S)[C@H](N)C(=O)O; Thp = NC1(C(=O)O)CCOCC1; Sar = CNCC(=O)O Some results are limits rather than exact numbers.

On to `CC(=O)NCCCC[C@@H]1NC(=O)[C@H](Cc2c[nH]c3c(C)cccc23)NC(=O)[C@H]([C@@H](C)O)NC(=O)[C@H](Cc2c[nH]cn2)NC(=O)[C@@H](NC(C)=O)C(C)(C)SSC(C)(C)[C@@H](C(=O)N[C@@H](Cc2ccc(OCCN)c3c2CCC3)C(=O)N[C@@H](Cc2ccc3ccccc3c2)C(=O)NC2(C(=O)N[C@@H](CCC(=O)O)C(=O)N[C@@H](CC(N)=O)C(=O)N[C@@H](Cc3cccnc3)C(=O)N(C)CC(N)=O)CCOCC2)NC1=O` [Compound 7] (Ac-[Pen]HT[Trp(7-Me)]K(Ac)[Pen][Phe(4-OC2H4NH2,2,3-(CH2)3)][2Nal][Thp]EN[3Pal][Sar]-NH2; disulfide 1-6), for which the remaining at 6 h, 1000 ng/mL in data set [1] was 98.3%; in data set [2] it was over 99%; in data set [3], over 99%; in data set [4] it was over 99%. Also, the Peak area% in data set [5] (0 h) is 94.095%; in data set [5] (4.5 h), 93.552%; in data set [5] (9.5 h), 93.575%; in data set [5] (18 h) it was 94.831%; in data set [7] (0 h), 95.281%; in data set [7] (4.5 h), 94.678%. Besides, the Peak area% in data set [7] (9.5 h) is given as 96.304%; in data set [7] (18 h) it was 93.661%. The IC50 (as a rule, the midpoint of a concentration-inhibition curve) in data set [6] turned out to be 0.0539 nM.

The values above are taken from EP4729529A1, “PREPARATION OF PEPTIDE INHIBITOR OF INTERLEUKIN-23 RECEPTOR AND USE THEREOF” (Xizang Haisco Pharmaceutical Co., Ltd., priority 2023, dated 2024).
